Assay results as given in patent EP1370276B1, “INTERCELLULAR COMMUNICATION FACILITATING COMPOUNDS AND THEIR MEDICAL USE” (Zealand Pharma A/S, priority 2001, dated 2002).

Tests used:
[1] = test system: phosphoinositol turnover in rat primary cardiomyocytes; test: Phosphoinositol turnover in primary cardiomyocyte cultures; format: cell-based; conditions: for EC50: enhancement of phospho-inositol turnover
Experimental: Neonatal Wistar rats (1-2 days old) are used. Hank's calcium- and magnesium-free balanced salt solution, buffered with 10 mM HEPES is used for washing during cell separation procedures. The hearts are excised, the ventricles isolated and the tissue cut into small pieces. The myocardial cells are isolated by stepwise enzymatic degradation with collagenase 0.05%, as described by ^[35]. After repeated rounds of centrifugation and washing, the precipitated cells are resuspended in culture medium M199 with Earle's salt, 10% NCS, penicillin (75 U/mL), and streptomycin (75 U/mL) and pre-plated in a Petri dish for 90 minutes. The non-adherent cells are collected in the culture medium and plated in multidishes at 2.5*10^5 cells/well. The cultures are kept in a water-saturated CO2-incubator at 37°C. The cardiomyocyte cultures are used for analyses after 6-7 days.
Cardiomyocyte cultures are incubated for 48 hours in culture medium containing 4 µCi/mL myo-[2-^3H]inositol to label the inositol phospholipids. On the day of analysis the medium is replaced by a buffer solution containing lithium and incubated at 37°C, as described by Meier et al. ^[36]. After at least five minutes this buffer is replaced by the same volume of buffer containing test compound and incubated for exactly 20 minutes. The reaction is stopped by rapid replacement of the buffer by ice cold 4%v/v perchloric acid (PCA) and incubation for at least 20 minutes at 0°C. The PCA-extract is neutralised and the [^3H]inosltol phosphates are separated by anion-exchange chromatography using Amprep™ columns containing 100 mg SAX Quaternary amine. The [^3H]inositol mono-phosphates are eluted and radioactivity in the fraction measured by liquid scintillation counting.
Before adding test substances to the cultures, the cells are depleted of glucose and oxygen by incubating them in a N2-atmosphere in glucose-free lithium-buffer for 10 minutes at 37°C. Control cells are incubated likewise only at normal atmospheric conditions and in a buffer containing glucose.

[2] = test system: cAMP formation in CHO cells; test: Inhibition of forskoline stimulated cAMP formation in CHO cells; format: cell-based; conditions: 10 µM forskoline, 20 min, cells pre-treated with glucose and oxygen deprivation
Experimental: CHO cells are seeded in 96-well microtiter plates in a density of 6,000 cells/cm^2 (∼ 2,000 cells/well) and grown for 4 days in vitro in 200 µl/well of growth media as described in the previous section.
On the day of analysis cells are removed from the incubator and washed twice with 200 µl pre-warmed (37°C) D-PBS (pH 7.2) to remove serum. Cells are incubated for 10 min in glucose free D-PBS and an N2-atmosphere as described in the previous section.
CHO cells are incubated at 37° C in D-PBS (pH 7.2) containing 6 mM glucose, 2.0 mM IBMX (phospodiesterase blocker), 10 µM forskoline (stimulates cAMP formation) and increasing concentrations of test peptide. The reaction is stopped after 20 min by addition of 20 µl 0.5 M HCl and left for at least 20 min at room temperature.
The content of cAMP is analysed by mixing 20 µl of the acid cell extract into FlashPlate™ wells (NEN assay kit SMP001) containing 180 µl [^12SI]cAMP tracer solution. FlashPlates™ are incubated overnight at 4° C and plate bound radioactivity counted in TopCount (Packard Instrument). Data are calculated as described in the previous section.

Ac-D-Tyr-D-Pro-D-4Hyp-Gly-D-Ala-Gly-NH2 [Compound 2]
increase in phospho-inositol turnover compared with noradrenaline alone ([1]; 100 nM + noradrenaline (300 nM), anoxia and glucose deprivation): about 70% | effect on noradrenaline (300 nM) induced increase in phospho-inositol turnover ([1]; 100 nM, control conditions): had no further effect | EC50 ([1]; Glucose and oxygen deprivation): 10 nM | EC50 ([1]; Normal conditions): 10 nM | EC50 [2]: 6.2 nM
